What all share (assay): growth of human tumour cells (NCI), 48 h
Test [1] has as its system UO-31 renal.
Test [2] has as its system HOP-92 NSCLC.
Test [3] has as its system SNB-75 CNS.
Test [4] has as its system NCI/ADR-RES ovarian.
Test [5] concerns OVCAR-8 ovarian.
Test [6] deals with U251 CNS.
The test system of test [7] is PC-3 prostate.
Test [8] relates to SK-MEL-2 melanoma.
In test [9] the test system is IGROV1 ovarian.
Test [10] relates to UACC-62 melanoma.
Test [11] has as its system HCT-15 colon.
In test [12] the test system is CAKI-1 renal.
The subject of test [13] is HOP-62 NSCLC.
Test [14] concerns SK-OV-3 ovarian.
Test [15] deals with SK-MEL-5 melanoma.
Test [16] relates to K-562 leukemia.
Test [17] concerns SR leukemia.

The values below come from PubChem BioAssay (NCI).

The structures appear in SMILES notation.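 How tested: cells in 96-well plates exposed to compound for 48 hours at five concentrations. TGI is the concentration that stops growth completely.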 Where a SMILES comes first, the peptide text is derived from it. [ ]: non-standard residue; d: D form. The star is where a group is joined. Hyp = O=C(O)[CH]1C[CH](O)CN1; Cbz = O=C(OCc1ccccc1)* Bounds are passed on as bounds.

As to `C#C[C@@H](OC(=O)c1ccc([N+](=O)[O-])cc1)[C@@H]1C[C@H]2O[C@@H]([C@H](C/C=C/CC)OC(=O)c3ccc([N+](=O)[O-])cc3)C[C@H]2O1`, the TGI in test [1], in [2], in [3], in test [4], in [5] and in [6] was over 100 µM throughout. In addition, the TGI in [7], in test [8], in [9], in [10], in test [11] and in test [12] was over 100 µM each time. The TGI in test [13], in test [14], in test [15] and in test [16] was over 100 µM in each case.

For `O=S(=O)(N1CCCCN(S(=O)(=O)C(F)(F)F)CCCN(S(=O)(=O)C(F)(F)F)CCCCN(S(=O)(=O)C(F)(F)F)CCCN(S(=O)(=O)C(F)(F)F)CCCCN(S(=O)(=O)C(F)(F)F)CCCN(S(=O)(=O)C(F)(F)F)CCCCN(S(=O)(=O)C(F)(F)F)CCC1)C(F)(F)F`, the TGI in [1] was over 31.6 µM; in [2] it was over 31.6 µM; in [3], over 31.6 µM; in [4], over 31.6 µM; in [5] it was over 31.6 µM; in [6], over 100 µM. For the same molecule, the TGI is over 31.6 µM in test [7]; over 100 µM in test [8]; over 31.6 µM in [9]; over 31.6 µM in test [10]; over 31.6 µM in test [11]; over 31.6 µM in [12]. Also, the TGI in test [13], in [14], in [15] and in [16] was over 31.6 µM each time.

Consider `NC(=O)CNC(=O)C1CC(O)CN1C(=O)C1CCCN1C(=O)OCc1ccccc1` (stereo not drawn) (Cbz-Pro-[Hyp]-Gly-NH2; configuration not given here), for which the TGI in [1], in test [3], in test [4], in [5], in [6] and in [7] was over 100 µM in each case. For the same molecule, the TGI in [8], in [9], in [10], in test [11], in test [13] and in test [17] was over 100 µM throughout. Also, the TGI in [14], in [15] and in test [16] was over 100 µM each time.

Take `CN(C)c1ccc(C2=C([O-])c3cc(-[n+]4ccccc4)ccc3C2=O)cc1`: the TGI in test [1], in [2], in test [3], in [4], in test [5] and in test [6] was over 100 µM in each case. The TGI in [7], in test [9], in test [11], in test [12], in [13] and in test [17] was over 100 µM each time. Moreover, the TGI in test [15] and in test [16] was over 100 µM each time.

In the case of `CN1C(CC(O)c2ccccc2)CCCC1CC(O)(c1ccccc1)c1ccccc1` (configuration not stated), the TGI came to 20.8 µM in test [1]; 44.8 µM in test [3]; 33.5 µM in test [4]; 43 µM in test [5]; 28.4 µM in test [6]; 34.7 µM in test [7]. In addition, the TGI in test [9] is 33.1 µM; in test [10], 40.7 µM; in test [11] it was 34.4 µM; in test [12], over 100 µM; in test [13], 27.6 µM; in test [17], 56.6 µM. The TGI in test [14] is 38.8 µM; in test [15], 31 µM; in [16] it was 94.8 µM.

On to `CCCCCCCCCc1cc(=O)c2c(O)cc(O)cc2o1`, for which the TGI in test [1] came to 32.6 µM; in test [2], 33.7 µM; in test [3], 33.2 µM; in test [4], 35.7 µM; in test [5], 40.2 µM; in test [6] it was 77.2 µM. The TGI in [7] was 32.1 µM; in [8], 34.3 µM; in [9], 32.4 µM; in [11] it was 36 µM; in [12], over 100 µM; in [13], 28.5 µM. Also, the TGI in [17] came to 32.7 µM; in [14], 32.2 µM; in test [15], 37.6 µM; in test [16], 26 µM.

`O=C(O)c1ccc2[nH]c(=O)oc2c1`: the TGI in test [3], in test [4], in test [5], in test [6], in [7] and in test [8] was over 100 µM throughout. The TGI in test [9], in [10], in [11], in [12], in test [13] and in [17] was over 100 µM in each case. Besides, the TGI in test [14] and in test [16] was over 100 µM throughout.

On to `O=C(c1ccccc1)N1CCC(Nc2cccnc2)O1` (configuration not stated), for which the TGI in [1], in [2], in test [4], in test [5], in test [6] and in [7] was over 100 µM each time. The TGI in [8], in test [9], in [10], in test [11], in test [13] and in test [17] was over 100 µM throughout. In addition, the TGI in test [14], in [15] and in test [16] was over 100 µM each time.

`O=c1oc2ccccc2c(O)c1Cc1ccccc1Cc1c(O)c2ccccc2oc1=O`: the TGI in [1], in test [2], in [3], in test [4], in test [5] and in test [6] was over 100 µM throughout. The TGI in [7], in [8], in test [9], in test [10], in test [11] and in test [12] was over 100 µM in each case. Further, the TGI in test [13], in test [14], in [15] and in test [16] was over 100 µM in each case.
